Experimental data reported in ChEMBL document CHEMBL6096683, “Novel Orthosteric/Allosteric Ligands of Cannabinoid Receptors: An Unexpected Pharmacological Profile” (J Med Chem, 2025).
Activity calls are given as the source filed them. The calls are words filed in the database; no cut-off is given here.

Columns and labels:
Cannabinoid receptor 2 [1] = molecular target: T1, Cannabinoid receptor 2 (Homo sapiens, UniProt P34972); experiment: Positive allosteric modulation at human CB2 receptor expressed in CHO cells assessed as inhibition of forskolin-induced cAMP production incubated for 90 mins in presence of CP55940 ligand by HitHunter assay; type: functional, cell-based
T1 sequence (P34972 whole entry): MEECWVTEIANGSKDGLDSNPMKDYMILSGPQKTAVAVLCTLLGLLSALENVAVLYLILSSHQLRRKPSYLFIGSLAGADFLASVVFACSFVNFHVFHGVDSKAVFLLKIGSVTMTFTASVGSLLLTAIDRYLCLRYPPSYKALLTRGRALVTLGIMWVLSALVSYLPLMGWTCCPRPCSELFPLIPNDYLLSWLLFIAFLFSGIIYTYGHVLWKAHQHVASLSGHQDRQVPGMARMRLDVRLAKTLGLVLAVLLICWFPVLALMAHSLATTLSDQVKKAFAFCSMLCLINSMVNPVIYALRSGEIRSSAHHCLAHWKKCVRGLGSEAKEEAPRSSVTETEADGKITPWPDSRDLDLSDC

Cannabinoid receptor 2 [2] = molecular target: T1, Cannabinoid receptor 2; experiment: Positive allosteric modulation at human CB2 receptor expressed in CHO cells assessed as inhibition of forskolin-induced cAMP production incubated for 90 mins in presence of CP55940 ligand by HitHunter assay relative to control; type: functional, cell-based; conditions: filed as positive allosteric modulator
Cannabinoid receptor 1 [3] = molecular target: T2, Cannabinoid receptor 1 (Homo sapiens, UniProt P21554); experiment: Positive allosteric modulation at human CB1 receptor expressed in CHO cells assessed as inhibition of forskolin-induced cAMP production incubated for 90 mins in presence of FM6b by HitHunter assay relative to control; type: functional, cell-based; conditions: filed as positive allosteric modulator
T2 sequence (P21554 whole entry): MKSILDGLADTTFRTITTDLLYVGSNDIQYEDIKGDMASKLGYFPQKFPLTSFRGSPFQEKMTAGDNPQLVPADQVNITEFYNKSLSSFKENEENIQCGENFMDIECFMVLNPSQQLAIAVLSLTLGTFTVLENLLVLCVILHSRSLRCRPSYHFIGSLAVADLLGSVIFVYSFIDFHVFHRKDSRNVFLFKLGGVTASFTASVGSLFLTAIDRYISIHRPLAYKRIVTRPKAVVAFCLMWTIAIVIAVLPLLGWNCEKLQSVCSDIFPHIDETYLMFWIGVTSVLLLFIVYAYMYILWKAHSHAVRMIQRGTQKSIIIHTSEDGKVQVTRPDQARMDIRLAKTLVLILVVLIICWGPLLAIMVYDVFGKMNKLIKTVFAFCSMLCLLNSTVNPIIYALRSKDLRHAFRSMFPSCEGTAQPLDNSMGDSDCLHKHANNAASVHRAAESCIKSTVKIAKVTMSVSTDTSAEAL

Cannabinoid receptor 1 [4] = molecular target: T2, Cannabinoid receptor 1; experiment: Displacement of [3H]CP55940 from human CB1 receptor expressed in CHO cells at 0.001 to 10 uM; type: cell-based; conditions: filed as positive allosteric modulator, dose 0.001-10 µM
HepG2 [5] = experiment: Anti-steatosis activity against oleate/palmitate-induced human HepG2 cells assessed as induction of lipolysis at 25 uM incubated for 24 hrs; type: functional, cell-based
Cannabinoid receptor 2 [6] = molecular target: T1, Cannabinoid receptor 2; experiment: Displacement of [3H]CP55940 from human CB2 receptor expressed in CHO cells at 10 uM; type: cell-based; conditions: filed as positive allosteric modulator
HepG2 [7] = experiment: Induction of lipid accumulation in human HepG2 cells assessed as increase in lipolysis at 0.1 to 25 uM incubated for 24 hrs by Oil Red O staining based analysis; type: functional, cell-based; conditions: dose 0.1-25 µM
Cannabinoid receptor 2 [8] = molecular target: T1, Cannabinoid receptor 2; experiment: Displacement of [3H]CP55940 from human CB2 receptor expressed in CHO cell membrane at 0.001 to 10 uM incubated for 2 hrs relative to control; type: cell membranes; conditions: dose 0.001-10 µM
Cannabinoid receptor 2 [9] = molecular target: T1, Cannabinoid receptor 2; experiment: Displacement of [3H]CP55940 from human CB2 receptor expressed in CHO cells upto 1 uM; type: cell-based
Cannabinoid receptor 2 [10] = molecular target: T1, Cannabinoid receptor 2; experiment: Positive allosteric modulation at human CB2 receptor expressed in CHO cells assessed as inhibition of forskolin-induced cAMP production incubated for 90 mins in presence of FM6b by HitHunter assay; type: functional, cell-based
Cannabinoid receptor 2 [11] = molecular target: T1, Cannabinoid receptor 2; experiment: Displacement of [3H]CP55940 from human CB2 receptor expressed in CHO cell membrane incubated for 2 hrs; type: cell membranes
Cannabinoid receptor 1 [12] = molecular target: T2, Cannabinoid receptor 1; experiment: Positive allosteric modulation at human CB1 receptor expressed in CHO cells assessed as inhibition of forskolin-induced cAMP production incubated for 90 mins by HitHunter assay; type: functional, cell-based; conditions: filed as positive allosteric modulator
Cannabinoid receptor 1 [13] = molecular target: T2, Cannabinoid receptor 1; experiment: Displacement of [3H]CP55940 from human CB1 receptor expressed in CHO cell membrane at 0.001 to 10 uM incubated for 2 hrs relative to control; type: cell membranes; conditions: dose 0.001-10 µM
Cannabinoid receptor 2 [14] = molecular target: T1, Cannabinoid receptor 2; experiment: Positive allosteric modulation at human CB2 receptor expressed in CHO cells assessed as inhibition of forskolin-induced cAMP production incubated for 90 mins in presence of FM6b by HitHunter assay relative to control; type: functional, cell-based; conditions: filed as positive allosteric modulator
Cannabinoid receptor 2 [15] = molecular target: T1, Cannabinoid receptor 2; experiment: Agonist activity at human CB2 receptor expressed in CHO cells assessed as inhibition of forskolin-induced cAMP production at 0.001 to 10 uM incubated for 90 mins by HitHunter assay; type: functional, cell-based; conditions: dose 0.001-10 µM
Cannabinoid receptor 1 [16] = molecular target: T2, Cannabinoid receptor 1; experiment: Agonist activity at human CB1 receptor expressed in CHO cells assessed as inhibition of forskolin-induced cAMP production at 100 nM incubated for 90 mins in presence of FM6b ligand by HitHunter assay relative to control; type: functional, cell-based; conditions: filed as agonist
Cannabinoid receptor 1 [17] = molecular target: T2, Cannabinoid receptor 1; experiment: Agonist activity at human CB1 receptor expressed in CHO cells assessed as inhibition of forskolin-induced cAMP production incubated for 90 mins in presence of GAT211 ligand by HitHunter assay; type: functional, cell-based
Cannabinoid receptor 1 [18] = molecular target: T2, Cannabinoid receptor 1; experiment: Agonist activity at human CB1 receptor expressed in CHO cells assessed as inhibition of forskolin-induced cAMP production at 100 nM incubated for 90 mins in presence of CP55940 ligand by HitHunter assay relative to control; type: functional, cell-based
Cannabinoid receptor 1 [19] = molecular target: T2, Cannabinoid receptor 1; experiment: Agonist activity at human CB1 receptor expressed in CHO cells assessed as inhibition of forskolin-induced cAMP production incubated for 90 mins in presence of FM6b ligand by HitHunter assay; type: functional, cell-based
Cannabinoid receptor 1 [20] = molecular target: T2, Cannabinoid receptor 1; experiment: Agonist activity at human CB1 receptor expressed in CHO cells assessed as inhibition of forskolin-induced cAMP production at 100 nM incubated for 90 mins in presence of GAT211 ligand by HitHunter assay relative to control; type: functional, cell-based
Cannabinoid receptor 1 [21] = molecular target: T2, Cannabinoid receptor 1; experiment: Displacement of [3H]CP55940 from human CB1 receptor expressed in CHO cell membrane incubated for 2 hrs; type: cell membranes
Cannabinoid receptor 2 [22] = molecular target: T1, Cannabinoid receptor 2; experiment: Agonist activity at human CB2 receptor expressed in CHO cells assessed as inhibition of forskolin-induced cAMP production at 10 uM incubated for 90 mins by HitHunter assay; type: functional, cell-based; conditions: filed as agonist
Cannabinoid receptor 1 [23] = molecular target: T2, Cannabinoid receptor 1; experiment: Agonist activity at human CB1 receptor expressed in CHO cells assessed as inhibition of forskolin-induced cAMP production incubated for 90 mins in presence of CP55940 ligand by HitHunter assay; type: functional, cell-based
HepG2 [24] = experiment: Induction of lipid accumulation in human HepG2 cells at 1 uM incubated for 24 hrs by Oil Red O staining based analysis; type: functional, cell-based
Cannabinoid receptor 2 [25] = molecular target: T1, Cannabinoid receptor 2; experiment: Agonist activity at human CB2 receptor expressed in CHO cells assessed as inhibition of forskolin-induced cAMP production incubated for 90 mins in presence of CP55940 ligand by HitHunter assay; type: functional, cell-based
Cannabinoid receptor 2 [26] = molecular target: T1, Cannabinoid receptor 2; experiment: Agonist activity at human CB2 receptor expressed in CHO cells assessed as inhibition of forskolin-induced cAMP production incubated for 90 mins in presence of FM6b ligand by HitHunter assay; type: functional, cell-based
Cannabinoid receptor 2 [27] = molecular target: T1, Cannabinoid receptor 2; experiment: Agonist activity at human CB2 receptor expressed in CHO cells assessed as inhibition of forskolin-induced cAMP production at 100 nM incubated for 90 mins in presence of FM6b ligand by HitHunter assay relative to control; type: functional, cell-based; conditions: filed as agonist
Cannabinoid receptor 2 [28] = molecular target: T1, Cannabinoid receptor 2; experiment: Agonist activity at human CB2 receptor expressed in CHO cells assessed as inhibition of forskolin-induced cAMP production at 100 nM incubated for 90 mins in presence of CP55940 ligand by HitHunter assay relative to control; type: functional, cell-based; conditions: filed as agonist

SMILES | IC50 (Cannabinoid receptor 2 [11]; read-out: pIC50 (converted)) [nM] | Emax (Cannabinoid receptor 1 [16]) [%] | EC50 (Cannabinoid receptor 1 [17]) [nM] | Emax (Cannabinoid receptor 1 [18]; filed as agonist) [%] | EC50 (Cannabinoid receptor 1 [19]) [nM] | Emax (Cannabinoid receptor 1 [20]) [%] | IC50 (Cannabinoid receptor 1 [21]) [nM] | Emax (Cannabinoid receptor 2 [8]; filed as agonist) [%] | Activity (Cannabinoid receptor 2 [22]) | EC50 (Cannabinoid receptor 1 [23]) [nM] | Emax (Cannabinoid receptor 1 [13]; filed as agonist) [%] | also measured
O=[N+]([O-])CC(c1ccccc1)c1c(-c2ccccc2)[nH]c2ccccc12 (stereo unspecified) | > 10000 |  |  |  |  |  |  |  |  |  |  | EC50 (Cannabinoid receptor 2 [1]): 0.06 nM; Emax (Cannabinoid receptor 2 [2]): 105%; Emax (Cannabinoid receptor 1 [3]): 85%; Activity (Cannabinoid receptor 1 [4]): Active; Activity (HepG2 [5]): inactive; Activity (Cannabinoid receptor 2 [6]): Active; Activity (HepG2 [7]): inactive; Emax (Cannabinoid receptor 2 [8]): 29%; Activity (Cannabinoid receptor 2 [9]): inactive; EC50 (Cannabinoid receptor 2 [10]): 170 nM; Activity (Cannabinoid receptor 1 [12]): Active; Emax (Cannabinoid receptor 1 [13]; filed as positive allosteric modulator): 140%; Emax (Cannabinoid receptor 2 [14]): 98%; Activity (Cannabinoid receptor 2 [15]): No effect
Cc1c(Br)cc(C(=O)NC2CCCCCC2)c(=O)n1CCCCCn1cc(CCCC(=O)NCC(c2ccccc2)c2c(-c3ccccc3)[nH]c3ccccc23)nn1 (stereo unspecified) | > 10000 | 130 | 5.01 | 122 | 1580 | 24 | 15.8 | 44 | Active | 251 |  | Emax (Cannabinoid receptor 1 [13]): 0.12%
Cc1c(Br)cc(C(=O)NC2CCCCCC2)c(=O)n1CCCn1cc(CCCCC(=O)NCC(c2ccccc2)c2c(-c3ccccc3)[nH]c3ccccc23)nn1 (stereo unspecified) |  | 67 |  |  | 63.1 | 3.32 | 0.631 | 97 | Active | 25.1 | 60 | Emax (Cannabinoid receptor 1 [18]): 31%
Cc1c(C(=O)NN2CCCCC2)nn(-c2ccc(Cl)cc2Cl)c1-c1ccc(Cl)cc1 |  |  |  |  |  |  |  |  |  |  |  | Activity (HepG2 [24]): Active
Cc1c(Br)cc(C(=O)NC2CCCCCC2)c(=O)n1CCCn1cc(CCC(=O)NCC(c2ccccc2)c2c(-c3ccccc3)[nH]c3ccccc23)nn1 (stereo unspecified) |  | 150 | 2 | 61 | 2510 | 26 | 31.6 | 130 | Active | 7.94 | 329 | EC50 (Cannabinoid receptor 2 [25]): 10 nM; EC50 (Cannabinoid receptor 2 [26]): 316 nM; Emax (Cannabinoid receptor 2 [27]): 77%; Emax (Cannabinoid receptor 2 [28]): 123%; IC50 (Cannabinoid receptor 2 [11]; read-out: IC50): 6.3 nM
